Tests used:
C. auris = experiment: Ex vivo porcine skin model of Candida auris colonization
Procedure: The collection of porcine skin samples was conducted under protocols approved by the University of Wisconsin-Madison Institutional Animal Care and Use Committee in accordance with published National Institutes of Health (NIH) and United States Department of Agriculture (USDA) guidelines. Excised skin was cleaned and shaved as described previously (Johnson et al., 2022). Full-thickness samples were obtained by 12 mm punch and placed in 12-well plates containing 3 mL Dulbecco's Modified Eagle Medium (DMEM) (Lonza, Walkersville, MD, USA) supplemented with 10% fetal bovine serum (FBS) (Atlanta biologicals, Lawrenceville, GA, USA), penicillin (1,000 U/mL), and streptomycin (1 mg/mL) (Corning, Manassas, VA, USA) for 6 hours. Tissues were rinsed in DBPS and moved to semi-solid media (6:4 ratio of 1% agarose (BIO-RAD, Hercules, CA, USA) in DPBS:DMEM with 10% FBS). Paraffin wax was applied around the edge of the skin and 10 μL C. auris suspended in synthetic sweat medium at 10^7 cells/mL was applied. Samples were incubated at 24 hours and compound A (8 μg/mL or 16 μg/mL) in synthetic sweat medium was applied. After 24 hours a sterile swab was used to remove compound from skin surface. Samples were vortexed in DPBS and plated on YPD+chloramphenicol to assess viable burden.

P. aeruginosa = experiment: Antibacterial MIC; type: cell-based, Pseudomonas aeruginosa
[1] = tested on: C. albicans SC5314 biofilms; experiment: Biofilm phase antifungal activity assay (XTT reduction); type: cell-based, Candida albicans
Procedure: (§1) These assays were performed as previously described (Mao et al., 2020; Ramage et al., 2001). C. albicans and C. auris, overnight cultures were washed in sterile PBS and adjusted to 1×10^6 CFU/mL in RPMI+MOPS pH 7. 100 μL cells were added to each well and incubated at 37° C. for 24 hours. A two-fold dilution series of the compounds was prepared in RPMI+MOPS with equal vehicle concentrations. Media was removed and biofilms were gently washed with PBS, then 200 μL of each drug dilution was added to wells and plates were incubated at 37° C. for an additional 24 hours. Media was removed and biofilms were gently washed with PBS, then 100 μL of XTT solution (0.83 mg/mL XTT sodium salt [Sigma, Cat #X4626]+32 μg/mL PMS [Sigma, Cat #P9625] in PBS) was added to each well. Plates were incubated at 37° C. for 30 minutes, then the absorbance was measured at 490 nm.
(§2) The metabolic activity of the biofilms was then assayed using the standard XXT reduction assay (Ramage et al., 2001). […] The biofilm activity of compound A was reduced by 4-fold relative to planktonic growth (MIC 4 μg/mL, Table 2).

C. albicans = experiment: Planktonic MIC, CLSI guidelines; type: cell-based, Candida albicans; conditions: data not shown
HepG2 cells = experiment: Mammalian cell culture toxicity assay (LDH release and XTT); type: cell-based, human
Procedure: HepG2 cells (ATCC, #) were maintained and cultured in HepG2 media (DMEM (Gibco, Cat #11965-092) with 5% FBS, 20 mM Glutamine, and Penicillin/Streptomycin) at 37° C. with 5% CO2. Cells were seeded in 96-well plates at a density of 1.25×10^4 cells/well and incubated overnight at 37° C. with 5% CO2, then media was removed and replaced with media containing a two-fold dilution series of compounds with equal DMSO concentrations across all wells including no compound controls. Cells were incubated for an additional 24 hours. Supernatant was removed and used to quantify lactate dehydrogenase release using the CyQuant LDH assay kit (Invitrogen, Cat #C20300) following the manufacturer's directions. LDH signal was normalized to a max lysis control. The remaining cells were then used to quantify cellular metabolism by XTT. Briefly, cells were washed, then 0.9 mg/mL XTT (Sigma, CAT #X4626)+320 μg/mL PMS ([…] methosulfate; Sigma, Cat #P9625) in HepG2 media was added to each well. Plates were incubated at 37° C., with 5% CO2 for 2 hours, then absorbance was measured at 490 nm.

C. auris 0381 biofilms = experiment: Biofilm phase antifungal activity assay (XTT reduction); type: cell-based, Candida auris
Procedure: as §1, §2

C. albicans SC5314 = experiment: Rat model of Candida albicans vascular catheter infection; type: in vivo
Procedure: C. albicans biofilm growth during infection of implanted medical devices was measured using an external jugular-vein, rat-catheter infection model (Nett et al., 2012). Briefly, a 1×10^6 cells/ml inoculum for each strain or strain combination was allowed to grow on an internal jugular catheter placed in a pathogen-free female rat (16-week old, 400 g) for 24 hours. After this period, the catheter volumes were removed and the catheters were flushed with 0.9% NaCl. The biofilms were dislodged by sonication and vortexing. Viable cell counts were determined by dilution plating. Three replicates were performed for each strain.
After a 24 hours biofilm formation phase, the devices were removed, sectioned to expose the intraluminal surface, and processed for SEM imaging. Briefly, one milliliter fixative (4% formaldehyde and 1% glutaraldehyde in PBS) was added to each catheter tube and tubes were fixed at 4° C. overnight. Catheters were then washed with PBS prior to incubation in 1% OsO4 for 30 minutes. Samples were then serially dehydrated in ethanol (30-100%). Critical point drying was used to completely dehydrate the samples prior to palladium-gold coating. Samples were imaged on a SEM LEO 1530, with Adobe Photoshop 2022 (v. 23.2.2) used for image compilation.
One potential approach to managing central venous catheter infections is to treat the lumen of the catheter with an anti-infective solution that is locked within the catheter and not introduced into the patient (Chandra et al., 2018). This strategy is most often applied to catheters infected with bacteria but has been proposed for fungal infections as well (Pappas et al., 2016; Mermel et al., 2009). To test the efficacy of KAPs in this setting, a rat model of C. albicans venous catheter infection was employed (Nett et al., 2023). The catheter was infected with C. albicans SC5314 and, on post-infection day 1, treated with A (8 μg/mL solution within catheter) or vehicle. After 24 hours, the catheter was removed and processed for fungal burden and scanning electron microscopy. […]

A. terreus = experiment: Planktonic MIC, CLSI guidelines; type: cell-based; conditions: Aspergillus terreus; strain CFF S023
[2] = 8 μg/mL solution within catheter, 24 hours

Nc1cc[n+](CC(=O)c2ccc3c(c2)OC(c2ccccc2)(c2ccccc2)O3)cc1.[Cl-] [Compound A]
reduction of fungal burden of colonized porcine skin (C. auris; 8 μg/mL, 24 hours after a single treatment): about 1 log10
fungal burden of colonized porcine skin (C. auris; 16 μg/mL versus 8 μg/mL, 24 hours): not reduced further
reduction of C. auris colonization of skin (C. auris; 8 or 16 μg/mL, 24 hours): about 1 log10 CFU
activity compared to cetylpyridinium chloride (P. aeruginosa; P. aeruginosa): more active
MIC (P. aeruginosa; Pseudomonas aeruginosa, strain PAO1): 64 µg/mL
IC50 ([1]; Candida albicans, SC5314, established 24 h biofilm, treated 24 h, XTT, read-out: biofilm metabolic activity IC50): 18.4 µg/mL
reduction of biofilm activity relative to planktonic growth ([1]; IC50 versus planktonic MIC): 4 fold
change in MIC with glycerol instead of glucose as carbon source (C. albicans): not observed
LD50, cell lysis assay (HepG2 cells; HepG2, LDH release, 24 h): 9 µg/mL
LD50, metabolic activity assay (HepG2 cells; HepG2, XTT, 24 h): 20 µg/mL
LD50, toxicity against human cell lines (HepG2 cells; readout not given): 9 µg/mL
activity during planktonic and inanimate-substrate biofilm growth (C. auris 0381 biofilms): comparable activity
extent of remaining biofilm (scanning electron microscopy) (C. albicans SC5314; [2]): dramatic reduction
reduction in fungal burden relative to vehicle-treated catheters (C. albicans SC5314; [2]): > 1 log10
fungal burden of the catheter (C. albicans SC5314; 8 μg/mL, 24 hr): significantly reduced
MIC (A. terreus): 2 to 4 µg/mL

Source: US20260274828A1, “BROAD SPECTRUM ANTIFUNGAL KETO-ALKYL-PYRIDINIUM COMPOUNDS” (priority 2023, published 2026)
